Earlier results on 1 compound are cited in patent US7339052B2, “Phosphoramidite activator for oligonucleotide synthesis” (Honeywell International Inc., priority 2005, dated 2008).

The structures appear in SMILES notation.

For the compound `c1ccc(CSc2nnn[nH]2)cc1` [BMT, 5-benzylmercaptotetrazole], the “maximum solubility in acetonitrile” value was “about 0.33 M”.
